Where two headings read alike, the source gives them in different places.

In series [1] the test system is SH-SY5Y M-currents (KCNQ2, KCNQ3 and KCNQ5). As to the kind of experiment: SH-SY5Y native cell line FLIPR assay (voltage-sensitive dye DiBAC). The format is cell-based, mouse neuroblastoma, rat glioma hybrid cell line. Particulars: SH-SY5Y native cell line, read-out: SH-SY5Y EC50. In outline:
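Response is peak DiBAC fluorescence change, normalised to the maximum from a positive control agent, sampled every 30 s over 25 min. Before compound addition, SH-SY5Y cells differentiated with PGE1 plus isomethylbutylxanthine were dye-loaded for 1 h in EBSS with […] DiBAC.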

The subject of series [2] is tactile allodynia following L5 nerve ligation, Male Sprague-Dawley rats. The series can be described thus: In vivo rat assay for neuropathic pain (L5 spinal nerve ligation, Von Frey tactile allodynia). The note with it: oral, Von Frey 50% paw withdrawal threshold after L5 ligation. From the text: A neuropathic pain condition is induced in rats using a nerve injury model similar to the method described by Kim and Chung (Kim, S. H. & Chung, J. M. (1992) Pain 50:355-363). Rats (Male Sprague-Dawley, Charles River, Wilmington, Mass.) weighing 200-300 grams were utilized. Food and water was available ad libitum except during testing) are anesthetized with halothane and the L5 spinal nerve is exposed, carefully isolated, and tightly ligated with 4.0 silk suture distal to the dorsal root ganglia. The wounds are sutured and the animals are allowed to recover in individual cages. To test the effect of a KCNQ opener on tactile allodynia following L5 nerve ligation, Von Frey tactile withdrawal thresholds are determined. Test animals are placed in a box separated by walls with a wire mesh floor allowing access to the plantar surface of the paw. […] Failure to lift the hind paw after 4 seconds is scored as a negative response and the next ascending hair is applied. […]
Baseline measurements of allodynia are performed immediately prior to subject selection and compound administration. […] Additional paw withdrawal thresholds are measured at various time intervals after compound administration. Examples 153 and 19 were evaluated in this assay.

In series [3] the test system is electroshock seizure, Male Wistar rats. As to the kind of experiment: In vivo rat assay for anti-convulsant activity (rat MES, electroshock seizure). The note with it: for Rat MES activity: single dose screening, typically 10 mg/kg, animals protected from hind limb extension; for ED50: Rattus norvegicus, po. The procedure:
Male Wistar rats were housed 4 per cage on a regular light/dark cycle (lights on 0600-1800) for one week prior to anti-convulsant testing. The apparatus used to induce electroshock seizure was obtained from Walhquist Instrument Co., Salt Lake City, Utah. The shock level was set at 150 mA and the duration at 0.2 seconds. A drop of 1% proparacaine solution was placed in each eye of a rat, the electrodes were placed over the eyes, and the shock was administered. Latency to hind limb extension was measured to the nearest 0.1 second.
The KCNQ opener was homogenized in either 0.5% carboxymethylcellulose in water or 0.5% methylcellulose in water) and administered orally through a steel 18-gauge rat gavage tube in a volume of 2 mL/kg of body weight. In the single dose screening assay, latency to seizure for the vehicle group and the KCNQ opener group were compared using t-test. Typically a dose of 10 mg/kg of the opener is used. However, openers can be run n a dose-response experiment where doses of 1, 3, 10 and 30 mg/Kg are used.
In the single dose screening assay, latency to seizure for the vehicle and the 10 mg/kg groups were compared using t-test. Latencies to seizure in the dose response studies were submitted to analysis of variance and all dose groups were compared to vehicle using Dunnett's method (JMP© ver 5.1, SAS). In all cases an effect was considered significant if p≦0.05.

The nature of series [4]: Metabolic stability in rats after oral administration (mass spectrometry). In kind it is in vivo, rat. Particulars: result in words. The source says:
Metabolite 14% of parent for compound 65 and metabolite 35% of parent for compound 366 were observed.

Series [5] relates to carrageenan-induced thermal hyperalgesia, Sprague Dawley rats. The series can be described thus: In vivo rat model for inflammatory pain (carrageenan, thermal hyperalgesia). The note with it: oral, carrageenan paw, thermal escape latency. As for the experimental part:
Compounds with anti-hyperalgesic activity will increase (or lengthen) the escape latency of the inflamed paw.
To induce a local inflammation, 50 μL of a 1% solution of λ-carrageenan in sterile water is injected subcutaneously into the plantar surface of the right hind paw of the rat (Sprague Dawley rats, sample size=8 per treatment group). The KCNQ openers typically at doses ranging from 1-100 mg/kg were homogenized in either 0.5% carboxymethylcellulose in water or 0.5% methylcellulose in water and administered orally through a steel 18-gauge rat gavage tube in a volume of 2 mL/kg of body weight 30 minutes prior to carrageenan injection. After carrageenan injection behavioral testing is conducted at the appropriate time following opener or vehicle administration (generally Tmax, the time of maximum plasma levels of the compound being tested). To assess the thermally evoked paw withdrawal response, a commercially available Hargreaves Box was used (UCSD Department of Anesthesiology, San Diego; La Jolla, Calif., stimulus intensity 5.25 amps). Rats were placed on a thin glass surface in individual chambers made of clear plastic. […] The time to withdrawal response is measured in seconds and assigned as the response latency. […]
A general note: Carrageenan injected into the paw causes an acute inflammation.

As for `CC(C)(C)CC(=O)Nc1nc2ccc(C(F)(F)F)cn2c1CC(C)(C)C` [Compound 19, 3,3-dimethyl-N-(3-neopentyl-6-(trifluoromethyl)imidazo[1,2-a]pyridin-2-yl)butanamide], the EC50 in series [1] (FLIPR assay, Table 1) was below 0.5 µM. This molecule came in with a 50% effective dose (ED50) in series [2] of 10 mg/kg. Moreover, the “Rat MES activity” value in series [3] (oral) is recorded as “+++ (+++ 7-8 animals protected)”.
Take `CC(C)(C)CC(=O)Nc1nc2ccc(C(F)(F)F)cn2c1C1CC1` [Compound 65, N-(3-cyclopropyl-6-(trifluoromethyl)imidazo[1,2-a]pyridin-2-yl)-3,3-dimethylbutanamide]: the half-maximal effective concentration (EC50) in series [1] (FLIPR assay, Table 1) is 0.5 to 3 µM. For the same molecule, in series [4], the metabolism in rats result was “undergo metabolism at the terminal carbon of the t-butyl group”.
Regarding `CC(C)(C)CC(=O)Nc1nc2ccc(F)cn2c1-c1ccc(OC(F)(F)F)cc1` [Compound 153, N-(6-fluoro-3(4-(trifluoromethoxy)phenyl)imidazo[1,2-a]pyridin-2-yl)-3,3-dimethylbutanamide], the values for the ED50 in series [5], in series [2] and in series [3] (rat MES dose-response) were 0.5 to 1 mg/kg, 1.9 mg/kg and 0.5 mg/kg, respectively. The EC50 in series [1] (FLIPR assay, Table 2) was below 0.5 µM. The “Rat MES activity” value in series [3] (oral) is on record as “+++ (+++ 7-8 animals protected)”.
With `CC(C)(C)CC(=O)Nc1nc2ccc(F)cn2c1-c1cc(C(F)(F)F)ccn1` [Compound 366, N-(6-fluoro-3-(4-(trifluoromethyl)pyridin-2-yl)imidazo[1,2-a]pyridin-2-yl)-3,3-dimethylbutanamide], the EC50 in series [1] (FLIPR assay (Table 3)) is below 0.5 µM. For the same molecule, the metabolism in rats entry in series [4] is “undergo metabolism at the terminal carbon of the t-butyl group”.
Turning to `CC(C)(CC(=O)Nc1nc2ccc(C(F)(F)F)cn2c1C1CCC1)C(F)(F)F` [Compound 431, N-(3-cyclobutyl-6-(trifluoromethyl)imidazo[1,2-a]pyridin-2-yl)-4,4,4-trifluoro-3,3-dimethylbutanamide], in series [1] (FLIPR assay (Table 6)), the EC50 was below 0.5 µM. For the same molecule, the median effective dose (ED50) in series [3] (rat MES dose-response) was determined as 5.2 mg/kg. In series [3] (oral), the “Rat MES activity” value was “+++ (+++ 7-8 animals protected)”. The metabolism in rats result in series [4] is reported as “little or no metabolism”.
Take `CC(C)(CC(=O)Nc1nc2ccc(F)cn2c1-c1cc(C(F)(F)F)ccn1)C(F)(F)F` [Compound 433, 4,4,4-trifluoro-N-(6-fluoro-3-(4-(trifluoromethyl)pyridin-2-yl)imidazo[1,2-a]pyridin-2-yl)-3,3-dimethylbutanamide]: the concentration for a half-maximal effect (EC50) in series [1] (FLIPR assay (Table 6)) was in the range of 0.5 to 3 µM. Further, the 50% effect level in series [3] (rat MES dose-response) (ED50) was put at a dose of 3.9 mg/kg. Further, the metabolism in rats result in series [4] is given as “little or no metabolism”.
Regarding `CC(C)(C(=O)Nc1nc2ccc(C(F)(F)F)nn2c1C1CCC1)C(F)(F)F` [Compound 437, N-(3-cyclobutyl-6-(trifluoromethyl)imidazo[1,2-b]pyridazin-2-yl)-3,3,3-trifluoro-2,2-dimethylpropanamide], in series [1] (FLIPR assay (Table 6)), the concentration for a half-maximal effect (EC50) was in the range of 0.5 to 3 µM. Also, the “Rat MES activity” value in series [3] (oral) was “+++ (+++ 7-8 animals protected)”.
`CC(C)(CC(=O)Nc1nc2ccc(C(F)(F)F)nn2c1C1CCC1)C(F)(F)F` [Compound 439, N-(3-cyclobutyl-6-(trifluoromethyl)imidazo[1,2-b]pyridazin-2-yl)-4,4,4-trifluoro-3,3-dimethylbutanamide]: in series [1] (FLIPR assay (Table 6)), the half-maximal effective concentration (EC50) is below 0.5 µM. The molecule further showed a 50% effective dose (ED50) in series [3] (rat MES dose-response) of 0.47 mg/kg. Further, the “Rat MES activity” value in series [3] (oral) is given as “+++ (+++ 7-8 animals protected)”.
Take `CC(C)(CC(=O)Nc1nc2ccc(F)cn2c1C1CCC1)C(F)(F)F` [Compound 446, N-(3-cyclobutyl-6-fluoroimidazo[1,2-a]pyridin-2-yl)-4,4,4-trifluoro-3,3-dimethylbutanamide]: in series [1] (FLIPR assay (Table 6)), the concentration for a half-maximal effect (EC50) was below 0.5 µM. Also, the “Rat MES activity” value in series [3] (oral) is recorded as “+++ (+++ 7-8 animals protected)”.
The matching figures for “N-(3-cyclobutyl-6-(trifluoromethyl)imidazo[1,2-b]pyridazin-2-yl)-4,4,4-trifluoro-3,3-dimethylbutanamide [Compound 438]”: below 0.5 µM and “+++ (+++ 7-8 animals protected)”.
For the molecule “N-(3-cyclopropyl-6-(trifluoromethyl)imidazo[1,2-b]pyridazin-2-yl)-4,4,4-trifluoro-3,3-dimethylbutanamide [Compound 436]”, the EC50 in series [1] (FLIPR assay (Table 6)) was 0.5 to 3 µM. Moreover, the “ED50 (mpk)” value in series [3] (rat MES dose-response, oral) came to 0.7 mpk.

What is called EC50 is the midpoint of the concentration-response curve. The term ED50 denotes the midpoint of the dose-response relation.
